In this test the target is T1, APOL1 G1 (Homo sapiens, UniProt O14791, I384M/S342G).
T1 sequence (O14791 28-398 S342G/I384M): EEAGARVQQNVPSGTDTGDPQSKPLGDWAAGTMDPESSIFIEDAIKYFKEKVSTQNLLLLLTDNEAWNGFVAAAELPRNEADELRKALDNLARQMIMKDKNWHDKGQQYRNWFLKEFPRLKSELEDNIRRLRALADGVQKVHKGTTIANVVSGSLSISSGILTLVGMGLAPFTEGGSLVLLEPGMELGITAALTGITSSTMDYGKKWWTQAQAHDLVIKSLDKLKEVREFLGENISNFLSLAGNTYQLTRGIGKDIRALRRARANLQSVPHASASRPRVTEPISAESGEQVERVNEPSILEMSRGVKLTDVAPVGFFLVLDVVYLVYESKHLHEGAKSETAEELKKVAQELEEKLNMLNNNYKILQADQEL
Kind of test: MultiTox-Fluor Multiplex Cytotoxicity Assay, tet-inducible APOL1 G1 T-REx-HEK293 cells. The class given is cell-based. Also noted: expressed in transfected cells; host or cells: T-REx HEK293, clone G1 DC3.25 (pAAVS1-Puro-APOL1 G1). Conditions: for IC90: read-out: Multi-Tox Assay IC90; for Emax: read-out: Multi-Tox Assay Max Activity (%). As to the method: The MultiTox-Fluor Multiplex Cytotoxicity Assay is a single-reagent-addition, homogeneous, fluorescence assay that measures the number of live and dead cells simultaneously in culture wells. The assay measures cell viability and cytotoxicity by detecting two distinct protease activities. The live-cell protease activity is restricted to intact viable cells and is measured using a fluorogenic, cell-permeant peptide glycyl-phenylalanylamino fluorocoumarin (GF-AFC) substrate. The substrate enters intact cells, where it is cleaved to generate a fluorescent signal proportional to the number of living cells. […] A second, cell-impermeant, fluorogenic peptide substrate (bis-AAF-R110 Substrate) is used to measure dead-cell protease that has been released from cells that have lost membrane integrity. A ratio of dead to live cells is used to normalize data.
Briefly, the tet-inducible transgenic APOL1 T-REx-HEK293 cell lines were incubated with 50 ng/mL tet to induce APOL1 in the presence of 3-(2-(4-fluorophenyl)-1H-indol-3-yl)-N-((3S,4R)-4-hydroxy-2-oxopyrrolidin-3-yl)propenamide at […], 0.0045, 0.0015, 0.0005 µM in duplicate for 24 hours in a humidified 37°C incubator. The MultiTox reagent was added to each well and placed back in the incubator for an additional 30 minutes. The plate was read on the EnVision plate reader. A ratio of dead to live cells was used to normalize, and data was imported, analyzed and fit using Genedata Screener (Basel, Switzerland) software. Data was normalized using percent of control, no tet (100% viability), and 50 ng/mL tet treated (0% viability),and fit using Smart Fit. The reagents, methods, and complete protocol for the MultiTox assay are described below. Table 42. Reagents Used in the Multi-Tox Assay
Human embryonic kidney (HEK293) cell lines containing a tet-inducible expression system (T-REx™; Invitrogen, Carlsbad, CA) and Adeno-associated virus site 1 pAA VS1-Puro-APOL1 G0 or pAAVS1-Puro-APOL1 G1 or pAAVS1-Puro-APOL1 G2 Clones G0 DC2.13, G1 DC3.25, and G2 DC4.44 were grown in a T-225 flask at ~90% confluency in cell growth media (DMEM, 10% Tet-free FBS, 2 mM L-glutamine, 100 Units/mL penicillin-streptomycin, 5 µg/mL blasticidin S HCl, 1 µg/mL puromycin dihydrochloride). Cells were washed with DPBS and then trypsinized to dissociate from the flask. Media was used to quench the trypsin, cells were then pelleted at 200g and resuspended in fresh cell assay media (DMEM, 2% Tet-free FBS, 2 mM L-glutamine, 100 Units/mL penicillin-streptomycin). Cells were counted and diluted to 1.17 x 10^6 cells/mL. 20 µL of cells (23,400/well) were dispensed to every well of a 384-well Poly-D-Lysine coated plate using the Multidrop dispenser. The plates were then incubated at room temperature for one hour.
Tetracycline is needed to induce APOL1 expression. 1 mg/mL tet stock in water was diluted to 250 ng/mL (5X) in cell assay media. 60 µL of cell assay media (no tet control) was dispensed in columns 1 and 24, and 60 µL of 5X tet was dispensed in 384-PP-round bottom plate in columns 2 to 23 with the Multidrop dispenser.
Assay ready plates from the Global Compound Archive were ordered using template 384_APOL1Cell_DR10n2_50uM_v3. Compounds were dispensed at 200 nL in DMSO. The final top concentration was 10 µM with a 10 point 3-fold dilution in duplicate in the MultiTox assay.
20 µL were transferred from the 5X tet plate to the ARP and mixed, then 5 µL of 5X tet and the compounds were transferred to the cell plate and mixed using the Bravo. The cell plate was placed in the humidified 37°C 5% CO2 incubator for 24 hours.
The MultiTox-Fluor Multiplex Cytotoxicity Assay was performed in accordance with the manufacturer's protocol. […]

Where [1] appears, read: HEK293, Multi-Tox Assay, APOL1 variant (G0/G1/G2) of the HEK293 cells not given.
The mark [2] stands for this setting: Multi-Tox Assay, APOL1 variant not given.
The mark [3] stands for this setting: Multi-Tox Assay, APOL1 variant (G0/G1/G2) not stated in Table 46.
The mark [4] stands for this setting: Multi-Tox Assay, APOL1 variant not stated in Table 46.

Like-named read-outs stand apart in the source and are kept apart here.

Broadly, the IC90 is the concentration needed for an effect of 90%. As for `C[C@H]1CC2(C[C@H](C)N1)OCCc1sc(C(F)(F)F)cc12` (stereo partly drawn) [Compound 195], the IC90 under setting [1] was > 500 nM. Besides, the Emax under setting [2] amounted to 76%.

Take `C[C@H]1C[C@@]2(C[C@@H](c3cn(CC4(CO)CC4)nn3)N1)OCC(F)(F)c1cc(Cl)sc12` [Compound 357]: the IC90 under setting [1] lay within 50 to 500 nM.

Consider `CC1CC2(CC(C3CCC3)N1)OCCc1cc(Cl)sc12` (mixture of isomers) [Compound 218], for which the IC90 under setting [1] lay within 50 to 500 nM. Further, under setting [2], the Emax was found to be 99.3%.

For the compound `C[C@H]1C[C@@]2(C[C@@H](c3cnc(-c4ccccc4)o3)N1)OCCc1cc(Cl)sc12` (racemic) [Compound 70], under setting [1], the IC90 is < 50 nM. Moreover, under setting [2], the Emax came to 99.3%.

Consider `Cc1noc(C)c1Cn1cc([C@@H]2C[C@]3(C[C@H](C)N2)OC[C@@H](O)c2cc(Cl)sc23)nn1` [Compound 237], for which, under setting [1], the IC90 was 50 to 500 nM.

Take `Cc1c([C@@H]2C[C@]3(C[C@H](C)N2)OCCc2cc(Cl)sc23)cnn1C` (racemic) [Compound 136]: the IC90 under setting [1] is 50 to 500 nM. Besides, under setting [2], the “Multi-Tox Assay Max Activity (%)” value is given as 98.7%.

Turning to `COc1ccnc([C@@H]2C[C@]3(C[C@H](C)N2)OCCc2cc(Cl)sc23)n1` (racemic) [Compound 145], the IC90 under setting [1] was > 500 nM. The “Multi-Tox Assay Max Activity (%)” value under setting [2] came to 97.7%.

Consider `C[C@H]1C[C@@]2(C[C@@H](c3cnn4ccccc34)N1)OCCc1cc(Cl)sc12` (racemic) [Compound 117], for which the IC90 under setting [1] fell in the range of 50 to 500 nM.

For `C[C@H]1CC2(C[C@@H](c3cn(C)nn3)N1)OCC(C)(C)c1sc(Cl)cc12` (single isomer, unassigned) [Compound 15], the IC90 under setting [1] was < 50 nM.

With `Cc1nn(C)cc1[C@@H]1C[C@]2(C[C@H](C)N1)OCCc1cc(Cl)sc12` (racemic) [Compound 142], the IC90 under setting [1] is 50 to 500 nM.

In the case of `Cc1cc(C)nc(CCn2cc([C@@H]3C[C@]4(C[C@H](C)N3)OC[C@@H](O)c3cc(Cl)sc34)nn2)c1` [Compound 235], the IC90 under setting [1] lay within 50 to 500 nM. Moreover, the “Multi-Tox Assay Max Activity (%)” value under setting [2] is listed as 100.0%.

In the case of `C[C@H]1C[C@@]2(C[C@@H](c3cn(CCO)nn3)N1)OCC(F)(F)c1cc(Cl)sc12` [Compound 361], the IC90 under setting [3] was 50 to 500 nM. Further, the “Multi-Tox Assay Max Activity (%)” value under setting [4] worked out at 98.0%.

`C[C@H]1C[C@@]2(C[C@@H](c3cn(Cc4ccc(S(C)(=O)=O)cc4)nn3)N1)OCC(F)(F)c1cc(Cl)sc12` [Compound 355]: under setting [1], the IC90 fell in the range of 50 to 500 nM. For the same compound, the “Multi-Tox Assay Max Activity (%)” value under setting [2] was 98.0%.

As for `C[C@H]1C[C@@]2(C[C@@H](c3cn(Cc4ccc(O)cc4)nn3)N1)OCC(F)(F)c1cc(Cl)sc12` [Compound 302], the IC90 under setting [1] lay within 50 to 500 nM. The “Multi-Tox Assay Max Activity (%)” value under setting [2] is on record as 94.0%.

For `CC1CC2(CC(c3cnn(CCS(C)(=O)=O)c3)N1)OCCc1cc(Cl)sc12` (stereo not drawn) [Compound 46], under setting [1], the IC90 was < 50 nM.

On to `Cn1cc([C@@H]2C[C@]3(C[C@H](C4CC4)N2)OCCc2cc(Cl)sc23)nn1` [Compound 381, (2'R,6'S,7S)-2-chloro-2'-cyclopropyl-6'-(1-methyltriazol-4-yl)spiro[4,5-dihydrothieno[2,3-c]pyran-7,4'-piperidine]], for which the IC90 under setting [3] was < 50 nM. For the same compound, the Emax under setting [4] was found to be 100%.

For `C[C@H]1C[C@@]2(C[C@@H](c3cn(CC4CCC4)nn3)N1)OC[C@@H](O)c1cc(Cl)sc12` [Compound 250], the IC90 under setting [1] fell in the range of 50 to 500 nM. The “Multi-Tox Assay Max Activity (%)” value under setting [2] is recorded as 95.0%.

As to `COc1ccccc1-c1ncc([C@@H]2C[C@]3(C[C@H](C)N2)OCCc2cc(Cl)sc23)cn1` (racemic) [Compound 105], the IC90 under setting [1] fell in the range of 50 to 500 nM. Moreover, the “Multi-Tox Assay Max Activity (%)” value under setting [2] is 99.3%.

For `C[C@H]1C[C@@]2(C[C@@H](c3ccnnc3)N1)OCCc1cc(Cl)sc12` (racemic) [Compound 93], the IC90 under setting [1] is < 50 nM. Moreover, under setting [2], the Emax came out at 99.3%.

Turning to `C[C@H]1C[C@@]2(C[C@@H](c3cc(C(F)(F)F)[nH]n3)N1)OCCc1cc(Cl)sc12` [Compound 119], under setting [1], the concentration for an effect of 90% (IC90) fell in the range of 50 to 500 nM. For the same compound, under setting [2], the “Multi-Tox Assay Max Activity (%)” value was 99.7%.

On to `C[C@H]1C[C@@]2(C[C@@H](c3cn(C)nn3)N1)OC[C@@H](O)c1sc(Cl)cc12` [Compound 182], for which, under setting [1], the IC90 was < 50 nM. For the same compound, the Emax under setting [2] was 100%.

For the compound `CC1CC2(CC(c3ccc4[nH]ncc4c3)N1)OCCc1cc(Cl)sc12` (stereo not drawn) [Compound 35], under setting [1], the IC90 was < 50 nM. Further, under setting [2], the “Multi-Tox Assay Max Activity (%)” value stood at 99.3%.

As for `CCc1cc([C@@H]2C[C@]3(C[C@H](C)N2)OCCc2cc(Cl)sc23)on1` [Compound 91], the IC90 under setting [1] is < 50 nM. Moreover, the Emax under setting [2] was 100%.

Turning to `C[C@H]1C[C@@]2(C[C@@H](c3ccc(O)nn3)N1)OCCc1cc(Cl)sc12` [Compound 86], the IC90 under setting [1] was < 50 nM. Also, under setting [2], the Emax is 99.5%.

For `CC(C)N1CC(Cn2cc([C@@H]3C[C@]4(C[C@H](C)N3)OC[C@@H](O)c3cc(Cl)sc34)nn2)CC1=O` (stereo partly drawn) [Compound 287], the IC90 under setting [1] lay in the range of 50 to 500 nM. For the same compound, under setting [2], the “Multi-Tox Assay Max Activity (%)” value stood at 96.0%.

With `C[C@H]1C[C@@]2(C[C@@H](c3cn(Cc4ccc(OC5CCOCC5)cc4)nn3)N1)OC[C@@H](O)c1cc(Cl)sc12` [Compound 266], the 90% effect concentration (IC90) under setting [1] lay in the range of 50 to 500 nM. In addition, the “Multi-Tox Assay Max Activity (%)” value under setting [2] was found to be 100.0%.

`Cc1ccnn1CCn1cc([C@@H]2C[C@]3(C[C@H](C)N2)OCC(F)(F)c2cc(Cl)sc23)nn1` [Compound 315]: the IC90 under setting [1] lay in the range of 50 to 500 nM. In addition, under setting [2], the “Multi-Tox Assay Max Activity (%)” value is 98.0%.

Consider `C[C@H]1C[C@@]2(C[C@@H](c3ncc(C(F)(F)F)[nH]3)N1)OCCc1cc(Cl)sc12` (racemic) [Compound 165], for which, under setting [1], the IC90 is > 500 nM. Also, under setting [2], the “Multi-Tox Assay Max Activity (%)” value is recorded as 92.0%.

Regarding `C[C@H]1C[C@@]2(C[C@@H](c3cn(Cc4ccc(C#N)nc4)nn3)N1)OCC(F)(F)c1cc(Cl)sc12` [Compound 352], under setting [1], the IC90 is 50 to 500 nM.

For the compound `CCc1cc2c(s1)CCOC21CC(C)NC(c2cn(C)nn2)C1` (single isomer, unassigned) [Compound 4], the IC90 under setting [1] was < 50 nM. For the same compound, the Emax under setting [2] was 99.3%.

As to `C[C@H]1C[C@@]2(C[C@@H](c3cn(CC(F)F)nn3)N1)OC[C@@H](O)c1cc(Cl)sc12` [Compound 283], the IC90 under setting [1] was in the range of 50 to 500 nM. Moreover, the “Multi-Tox Assay Max Activity (%)” value under setting [2] is listed as 101.0%.

As to `C[C@H]1C[C@@]2(C[C@@H](c3cn(CC4(F)CCOCC4)nn3)N1)OC[C@@H](O)c1cc(Cl)sc12` [Compound 289], the IC90 under setting [1] is > 500 nM. In addition, the “Multi-Tox Assay Max Activity (%)” value under setting [2] stood at 83.0%.

The record behind these values is patent EP4810040A2, “INHIBITORS OF APOL1 AND METHODS OF USING SAME” (priority 2020, dated 2022).
